Experimental data from patent US8946234B2, “Halogen-substituted compounds” (Bayer CropScience AG, priority 2008, dated 2015).

Experiment: logP by HPLC on a C18 phase inversion column, EEC Directive 79/831 Annex V.A8, method a) (Agilent 1100, 10-95% acetonitrile in 4.25 min)
Type: physicochemical
Experimental: ^a) Note regarding the determination of the log P values and mass detection: The log P values given were determined in accordance with EEC Directive 79/831 Annex V.A8 by HPLC (High Performance Liquid Chromatography) on a phase inversion column (C18). Agilent 1100 LC system; 50*4.6 Zorbax Eclipse Plus C18 1.8 micron; eluent A: acetonitrile (0.1% formic acid); eluent B: water (0.09% formic acid); linear gradient from 10% acetonitrile to 95% acetonitrile in 4.25 min, then 95% acetonitrile for a further 1.25 min; oven temperature 55° C.; flow: 2.0 ml/min. The mass detection is carried out via an Agilend MSD system.

[1] = HPLC phase inversion (reversed-phase) C18 column, HPLC method a), eluent acetonitrile/water with formic acid, read-out: logP
[2] = HPLC method a), eluent acetonitrile/water with formic acid, read-out: logP

## CCn1nc(C(F)(F)C(F)(F)F)c(C(F)(F)F)c1C(=O)O [1-Ethyl-3-(pentafluoroethyl)-4-(trifluoromethyl)-1H-pyrazole-5-carboxylic acid]
[1]
  chromatographic logP: 2.18

## Cn1nc(C(F)(F)F)c(C(F)(F)F)c1C(=O)O [1-Methyl-3,4-bis(trifluoromethyl)-1H-pyrazole-5-carboxylic acid]
[1]
  chromatographic logP: 1.47

## Cn1ccc(C(F)(Cl)C(F)(F)F)n1 (centres unmarked) [1-Methyl-3-(1-chloro-1,2,2,2-tetrafluoroethyl)-1H-pyrazole]
[1]
  chromatographic logP: 2.46

## Cn1ccc(C(F)(F)C(F)(F)C(F)(F)F)n1 [1-Methyl-3-heptafluoropropyl-1H-pyrazole]
[2]
  chromatographic logP: 2.84

## Cn1nc(C(F)(F)C(F)(F)C(F)(F)C(F)(F)F)cc1C(=O)O [1-Methyl-3-nonafluorobutyl-1H-pyrazole-5-carboxylic acid]
[2]
  chromatographic logP: 3.01

## Cn1ccc(C(F)(F)C(F)(F)C(F)(F)C(F)(F)F)n1 [1-Methyl-3-nonafluorobutyl-1H-pyrazole]
[2]
  chromatographic logP: 3.38

## Cn1nc(C(F)(F)C(F)(F)F)cc1C(=O)O [1-Methyl-3-pentafluoroethyl-1H-pyrazole-5-carboxylic acid]
[1]
  chromatographic logP: 2.08

## Cn1ccc(C(F)(F)C(F)(F)F)n1 [1-Methyl-3-pentafluoroethyl-1H-pyrazole]
[1]
  chromatographic logP: 2.29

## Cn1nc(C(F)(F)C(F)(F)F)c(C(F)(F)F)c1C(=O)O [1-Methyl-3-pentafluoroethyl-4-trifluoromethyl-1H-pyrazole-5-carboxylic acid]
[2]
  chromatographic logP: 1.86

## O=C(O)c1cnc(C(F)(F)C(F)(F)C(F)(F)F)nc1C(F)(F)F [2-(Heptafluoropropyl)-4-(trifluoromethyl)pyrimidine-5-carboxylic acid]
[2]
  chromatographic logP: 2.23

## Cc1nc(C(=O)Nc2ccc(Cl)c(C(=O)O)c2)c(C(F)(F)F)c(C(F)(F)C(F)(F)F)n1 [2-chloro-5-({[2-methyl-6-(pentafluoroethyl)-5-(trifluoromethyl)pyrimidin-4-yl]carbonyl}amino)benzoic acid]
[1]
  chromatographic logP: 3.3

## O=C(NC1CC1)c1cc(NC(=O)c2cnc(Cl)cc2C(F)(F)F)ccc1Cl [2-chloro-N-[4-chloro-3-(cyclopropylcarbamoyl)phenyl]-4-(trifluoromethyl)pyridine-5-carboxamide]
[1]
  chromatographic logP: 2.35

## O=C(O)c1[nH]nc(C(F)(F)C(F)(F)F)c1C(F)(F)F [3-(Pentafluoroethyl)-4-(trifluoromethyl)-1H-pyrazole-5-carboxylic acid]
[1]
  chromatographic logP: 2

## Cn1nc(C(F)(F)OC(F)(F)OC(F)(F)F)cc1C(=O)O [3-{[Difluoro(trifluoromethoxy)methoxy](difluoro)methyl}-1-methyl-1H-pyrazole-5-carboxylic acid]
logP
  chromatographic logP: 3.38

## Cn1ccc(C(F)(F)OC(F)(F)OC(F)(F)F)n1 [3-{[Difluoro(trifluoromethoxy)methoxy](difluoro)methyl}-1-methyl-1H-pyrazole]
[1]
  chromatographic logP: 3.79

## Cc1nc(C(F)(F)C(F)(F)F)nc(C)c1C(=O)O [4,6-Dimethyl-2-(pentafluoroethyl)pyrimidine-5-carboxylic acid]
[1]
  chromatographic logP: 1.63

## O=C(O)c1cnc(C(F)(F)C(F)(F)F)nc1C(F)F [4-(Difluoromethyl)-2-(pentafluoroethyl)pyrimidine-5-carboxylic acid]
[1]
  chromatographic logP: 1.8

## Cn1nc(C(F)(Cl)C(F)(F)F)c(Br)c1C(=O)O (centres unmarked) [4-Bromo-1-methyl-3-(1-chloro-1,2,2,2-tetrafluoroethyl)-1H-pyrazole-5-carboxylic acid]
[1]
  chromatographic logP: 2.43

## Cn1cc(Br)c(C(F)(Cl)C(F)(F)F)n1 (centres unmarked) [4-Bromo-1-methyl-3-(1-chloro-1,2,2,2-tetrafluoroethyl)-1H-pyrazole]
[1]
  chromatographic logP: 3.17

## Cn1nc(C(F)(F)C(F)(F)C(F)(F)F)c(Br)c1C(=O)O [4-Bromo-1-methyl-3-heptafluoropropyl-1H-pyrazole-5-carboxylic acid]
[2]
  chromatographic logP: 2.26

## Cn1cc(Br)c(C(F)(F)C(F)(F)C(F)(F)F)n1 [4-Bromo-1-methyl-3-heptafluoropropyl-1H-pyrazole]
[2]
  chromatographic logP: 3.53

## Cn1nc(C(F)(F)C(F)(F)C(F)(F)C(F)(F)F)c(Br)c1C(=O)O [4-Bromo-1-methyl-3-nonafluorobutyl-1H-pyrazole-5-carboxylic acid]
[2]
  chromatographic logP: 3.17

## Cn1nc(C(F)(F)C(F)(F)F)c(Br)c1C(=O)O [4-Bromo-1-methyl-3-pentafluoroethyl-1H-pyrazole-5-carboxylic acid]
[1]
  chromatographic logP: 4.69

## Cn1nc(C(F)(F)OC(F)(F)OC(F)(F)F)c(Br)c1C(=O)O [4-Bromo-3-{[(difluoro(trifluoromethoxy)methoxy](difluoro)methyl}-1-methyl-1H-pyrazole-5-carboxylic acid]
[1]
  chromatographic logP: 3.56

## Cc1nc(C(F)(F)C(F)(F)F)ncc1C(=O)O [4-Methyl-2-(pentafluoroethyl)pyrimidine-5-carboxylic acid]
[1]
  chromatographic logP: 1.97

## Cc1nc(C(F)(F)F)ncc1C(=O)O [4-Methyl-2-(trifluoromethyl)pyrimidine-5-carboxylic acid]
[1]
  chromatographic logP: 1.26

## Cn1nc(C(F)(F)C(F)(F)F)c(C(F)(F)F)c1C(=O)Nc1cc(C(=O)O)c(Br)cn1 [5-bromo-2-({[1-methyl-3-(pentafluoroethyl)-4-(trifluoromethyl)-1H-pyrazol-5-yl]carbonyl}amino)isonicotinic acid]
[1]
  chromatographic logP: 2.85

## O=C(NC1CC1)c1cc(NC(=O)c2ncc(Cl)cc2C(F)(F)F)ccc1Cl [5-chloro-N-[4-chloro-3-(cyclopropylcarbamoyl)phenyl]-3-(trifluoromethyl)pyridine-2-carboxamide]
[1]
  chromatographic logP: 2.55

## CCOC(=O)c1cnc(C(F)(F)C(F)(F)C(F)(F)F)nc1C(F)(F)F [Ethyl 2-(heptafluoropropyl)-4-(trifluoromethyl)pyrimidine-5-carboxylate]
[2]
  chromatographic logP: 4.32

## CCOC(=O)c1c(C)nc(C(F)(F)C(F)(F)F)nc1C [Ethyl 4,6-dimethyl-2-(pentafluoroethyl)pyrimidine-5-carboxylate]
[1]
  chromatographic logP: 3.68

## CCOC(=O)c1cnc(C(F)(F)C(F)(F)F)nc1C(F)F [Ethyl 4-(difluoromethyl)-2-(pentafluoroethyl)pyrimidine-5-carboxylate]
[1]
  chromatographic logP: 3.42

## Cc1nc(C(=O)Nc2ccc(Cl)c(C(=O)NC3CC3)c2)c(C(F)(F)F)c(C(F)(F)C(F)(F)F)n1 [Ia-1, N-[4-Chloro-3-(cyclopropylcarbamoyl)phenyl]-2-methyl-6-(pentafluoroethyl)-5-(trifluoromethyl)pyrimidine-4-carboxamide]
[1]
  chromatographic logP: 3.33

## O=C(NC1CC1)c1cc(NC(=O)c2cnc(C(F)(F)F)nc2C(F)(F)F)ccc1Cl [Ib-3]
  logP: 2.78^a)

## O=C(NCC(F)(F)F)c1cc(NC(=O)c2cnc(C(F)(F)F)nc2C(F)(F)F)ccc1Cl [Ib-4]
  logP: 3.14^a)

## O=C(NCC=CCl)c1cc(NC(=O)c2cnc(C(F)(F)F)nc2C(F)(F)F)ccc1Cl [Ib-5]
  logP: 3.19^a)

## O=C(NCc1ccccc1)c1cc(NC(=O)c2cnc(C(F)(F)F)nc2C(F)(F)F)ccc1Cl [Ib-6]
  logP: 3.39^a)

## O=C(NC1CC1)c1cc(NC(=O)c2cnc(C(F)(F)C(F)(F)F)nc2C(F)(F)F)ccc1Cl [Ib-7]
  logP: 3.20^a)

## Cc1nc(C(F)(F)C(F)(F)F)nc(C)c1C(=O)Nc1ccc(Cl)c(C(=O)NC2CC2)c1 [Ib-8]
  logP: 2.82^a)

## O=C(NCC(F)(F)F)c1cc(NC(=O)c2cnc(C(F)(F)C(F)(F)F)nc2C(F)(F)F)ccc1Cl [Ib-9]
  logP: 3.53^a)

## O=C(NCC=CCl)c1cc(NC(=O)c2cnc(C(F)(F)C(F)(F)F)nc2C(F)(F)F)ccc1Cl [Ib-10]
  logP: 3.59^a)

## O=C(NCc1ccccc1)c1cc(NC(=O)c2cnc(C(F)(F)C(F)(F)F)nc2C(F)(F)F)ccc1Cl [Ib-11]
  logP: 3.78^a)

## Cc1nc(C(F)(F)C(F)(F)F)nc(C)c1C(=O)Nc1ccc(Cl)c(C(=O)NCC(F)(F)F)c1 [Ib-12]
  logP: 3.22^a)

## Cc1nc(C(F)(F)C(F)(F)F)nc(C)c1C(=O)Nc1ccc(Cl)c(C(=O)NCC=CCl)c1 [Ib-13]
  logP: 3.26^a)

## Cc1nc(C(F)(F)C(F)(F)F)nc(C)c1C(=O)Nc1ccc(Cl)c(C(=O)NCc2ccccc2)c1 [Ib-14]
  logP: 3.49^a)

## O=C(NC1CC1)c1cc(NC(=O)c2cnc(C(F)(F)C(F)(F)C(F)(F)F)nc2C(F)(F)F)ccc1Cl [Ib-15]
  logP: 3.56^a)

## O=C(NCC(F)(F)F)c1cc(NC(=O)c2cnc(C(F)(F)C(F)(F)C(F)(F)F)nc2C(F)(F)F)ccc1Cl [Ib-16]
  logP: 3.88^a)

## O=C(NCC=CCl)c1cc(NC(=O)c2cnc(C(F)(F)C(F)(F)C(F)(F)F)nc2C(F)(F)F)ccc1Cl [Ib-17]
  logP: 3.92^a)

## O=C(NCc1ccccc1)c1cc(NC(=O)c2cnc(C(F)(F)C(F)(F)C(F)(F)F)nc2C(F)(F)F)ccc1Cl [Ib-18]
  logP: 4.13^a)

## Cc1nc(C(F)(F)F)ncc1C(=O)Nc1ccc(Cl)c(C(=O)NC2CC2)c1 [Ib-19]
  logP: 2.24v

## Cc1nc(C(F)(F)F)ncc1C(=O)Nc1ccc(Cl)c(C(=O)NCC(F)(F)F)c1 [Ib-20]
  logP: 2.65^a)

## Cc1nc(C(F)(F)F)ncc1C(=O)Nc1ccc(Cl)c(C(=O)NCC=CCl)c1 [Ib-21]
  logP: 2.69^a)

## Cc1nc(C(F)(F)F)ncc1C(=O)Nc1ccc(Cl)c(C(=O)NCc2ccccc2)c1 [Ib-22]
  logP: 2.94^a)

## Cc1nc(C(F)(F)C(F)(F)F)ncc1C(=O)Nc1ccc(Cl)c(C(=O)NC2CC2)c1 [Ib-23]
  logP: 2.76^a)

## Cc1nc(C(F)(F)C(F)(F)F)ncc1C(=O)Nc1ccc(Cl)c(C(=O)NCC(F)(F)F)c1 [Ib-24]
  logP: 3.16^a)

## Cc1nc(C(F)(F)C(F)(F)F)ncc1C(=O)Nc1ccc(Cl)c(C(=O)NCC=CCl)c1 [Ib-25]
  logP: 3.2^a)

## Cc1nc(C(F)(F)C(F)(F)F)ncc1C(=O)Nc1ccc(Cl)c(C(=O)NCc2ccccc2)c1 [Ib-26]
  logP: 3.43^a)
